From patent US8063225B2, “Tricyclic compound derivatives useful in the treatment of neoplastic diseases, inflammatory disorders and immunomodulatory disorders” (Chembridge Corporation, priority 2006, dated 2011)
pIC50: −log10 of the molar value.

Columns and labels:
[1] = target: T1, Alk (Homo sapiens, UniProt Q9UM73); test: Tyrosine kinase assay (Kinase-Glo or AlphaScreen), Alk; settings: biochemical tyrosine kinase assay
T1 construct: 6×His- or GST-tagged kinase domain fragments of the corresponding RTKs expressed in baculovirus system; host or cells: baculovirus system
In short: (§1)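 Test compounds, eight concentrations from 1 nM to 20 μM, were incubated with tagged recombinant kinase domain, poly(Glu-Tyr, 4:1) and 10 μM ATP. After 60 minutes at 37° C, Kinase-Glo luminescence quantified unconsumed ATP.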

[2] = target: T2, IGF1R tyrosine kinase (Homo sapiens, UniProt P08069); test: IGF1R tyrosine kinase assay (Kinase-Glo ATP depletion or PT66/PT100 AlphaScreen); settings: biochemical tyrosine kinase assay
T2 construct: 6×His- or GST-tagged kinase domain fragments of the corresponding RTKs expressed in baculovirus system; host or cells: baculovirus system
In short: as §1

[3] = target: T3, IGF1 receptor (Homo sapiens, UniProt P08069); test: ELISA-based assay of IGF1 receptor autophosphorylation inhibition in cells; format: cell-based; settings: IGF1R phosphorylation inhibition in MCF7 cells
T3 construct: MCF7 human breast cancer cells expressing IGF1 receptor; endogenous in cells; host or cells: MCF7 human breast cancer cells
Experimental: In another embodiment, compounds that interact with the IGF1R kinase domain are tested in a cell-based assay system. In accordance with this embodiment, cells expressing a full-length IGF1 receptor or a fragment thereof containing the IGF1R kinase domain, are contacted with a candidate or a control compound and the ability of the compound to block tyrosine kinase activity of IGF1R within a cell is determined. This assay may be used to screen a single compound or a large library of candidate compounds. Typically, the cells or cell lines are of mammalian origin and they can express the IGF1 receptor, or functional IGF1R kinase domain fragment, endogenously or be genetically engineered to express the IGF1R, or functional fragment thereof. The ability of the candidate compound to inhibit IGF1R kinase activity can be determined by methods known to those skilled in the art. For example, the inhibition can be determined by ELISA-type assay or Western blot analysis with cell lysates or immunoprecipitated IGF1R receptor using various anti-IGF1R and anti-phosphotyrosine antibodies.
In general, cells expressing IGF1R are treated with modulators (i.e., inhibitors or activators) of IGF1R kinase activity and cell lysates are produced from these treated cells. IGF1Rs are isolated from the lysate by immunoprecipitation and analyzed for phosphotyrosine content. Alternatively, or in addition, cellular protein substrates phosphorylated by IGFR may be immunoprecipitated from the lysates and their degree of tyrosine phosphorylation determined.
MCF7 human breast cancer cells expressing IGF1 receptor or an engineered […] fibroblast cell line NIH 3T3 overexpressing full-length IGF1R are an exemplary cellular models in which to perform such assays. Such cells may be maintained in DMEM medium supplemented with 10% fetal bovine serum (FBS), 4% L-glutamine, 1% antibiotic solution (penicillin-Streptomycin) in a humidified atmosphere of 95% air and 5% CO2 at 37° C. Confluent cells in T175 cell culture flasks are incubated overnight with serum-free DMEM medium. After the serum starvation step, the cells are detached and split into a standard 96-well cell culture plate (one T175 flask per plate, 30 μl of cell suspension per plate well). Tested inhibitors from their 10 mM stock solutions in DMSO are subsequently added at various concentrations in serum-free DMEM medium for 1 hour incubation at 37° C. in CO2-incubator; total DMSO concentration in both treated and control wells is adjusted to 1%. Cells are then stimulated for 10 minutes with 100 nM IGF-1 added in 30 μl DMEM. After treatment, cells are lysed by addition of 30 μl of 4× lysis buffer (phosphate-buffered saline (PBS), 2% Triton-X100, 1 mM phenylmethylsulphonyl fluoride (PMSF) and 8 mM activated orthovanadate), mixing and incubation for 15 minute at room temperature. To prepare assay plates, 96-well ELISA Plates (Pierce Chemical, Reacti-bind plates) were coated by goat-anti-rabbit Fc antiserum by adding 0.25 μg antiserum per well in 0.2M sodium bicarbonate buffer per well and incubating overnight at 4° C. After incubation, the plate is washed three times by PBS with 0.02% Tween-20, supplied with 25 ng/50 μl per well of anti-IGF1R antibody (C-20, Santa Cruz Biotechnology) and incubated for several hours to overnight. Prior to the addition of the prepared cellular lysates, the antibody solution is aspirated, wells washed with PBS and supplied with 25 μl per well of Starting Block buffer (Pierce Chemical).
To measure tyrosine phosphorylation of the beta-subunits of the IGF1R, 25-50 μl of the lysates are transferred from the stimulation plate to the wells of the prepared assay plate and incubated overnight at 4° C. The wells are washed with PBS with 0.02% Tween-20, incubated with 50 μl of 1:3000 dilution of anti-phosphotyrosine 4G10-HRP antibody conjugate (Upstate Biotechnology) for 2 hours at room temperature and washed again. […]

[4] = target: T4, Jak2 (Homo sapiens, UniProt O60674); test: Tyrosine kinase assay (Kinase-Glo or AlphaScreen), Jak2; settings: biochemical tyrosine kinase assay
T4 construct: 6×His- or GST-tagged kinase domain fragments of the corresponding RTKs expressed in baculovirus system; host or cells: baculovirus system
In short: as §1

[5] = target: T5, InsR (Homo sapiens, UniProt P06213); test: Tyrosine kinase assay (Kinase-Glo or AlphaScreen), InsR; settings: biochemical tyrosine kinase assay
T5 construct: 6×His- or GST-tagged kinase domain fragments of the corresponding RTKs expressed in baculovirus system; host or cells: baculovirus system
In short: as §1

[6] = test system: CHO (chinese hamster ovary); test: Cell proliferation inhibition, Cell Titer-Glo, CHO; format: cell-based; settings: Cricetulus griseus; cell proliferation assay, CHO cells
Experimental: (§2) IGF1R and other tyrosine kinase inhibitors can inhibit the proliferation of certain cancer cell lines indicating their possible therapeutic utility for treating the corresponding cancer types. Cancer cell lines of interest and control normal lines, including CHO, HEK293, BA/F3, MM1, H929, COLO205, PC3, DU145, MCF7, Panc1, ACHN, Hep G2, H460, K562, TT, U87-G, CAOV-3, SK-MEL5, Karpas 299, are plated in white, clear-bottomed 384-well cell culture plates at 2500-5000 cells per well and supplied with dilutions of tested compounds After a desired period of time (typically 3 days), the number of viable cells is quantitated by using Cell Titer-Glo Luminescent Cell Viability Assay (Promega), a cell proliferation assay system based on detection of total amount of ATP present as a measure of cell metabolic activity. The plated cells are mixed with the Cell Titer-Glo developing reagent and counted in a luminescence multiwell plate reader according to the standard manufacturer's protocol to generate IC50 curves for cell proliferation inhibition.
(§3) IGF1R and other tyrosine kinase inhibitors can inhibit the proliferation of certain cancer cell lines indicating their possible therapeutic utility for treating the corresponding cancer types. Cancer cell lines of interest and control normal lines, including CHO, HEK293, BA/F3, COLO205, PC3, DU145, MCF7, Panc1, ACHN, Hep G2, H460, K562, TT, U87-MG, CAOV-3, SK-MEL5, Karpas 299 and human multiple myeloma cell lines H929, MM1s, MM1r, UTMC2, CPM2, KMS11, My5, KMS12PE, My7, JJN3, KMS18, U266, SKMM2, RPMI-8226 are plated in white, clear-bottomed 384-well cell culture plates at 2500-5000 cells per well and supplied with dilutions of tested compounds After a desired period of time (typically 3 days), the number of viable cells is quantitated by using Cell Titer-Glo Luminescent Cell Viability Assay (Promega), a cell proliferation assay system based on detection of total amount of ATP present as a measure of cell metabolic activity. The plated cells are mixed with the Cell Titer-Glo developing reagent and counted in a luminescence multiwell plate reader according to the standard manufacturer's protocol to generate IC50 curves for cell proliferation inhibition. Results are typically reported as percent of growth (% viability =(OD72h(compound)−ODday0))/(OD72h(no compound)−ODday0). Alternatively, viable cells are quantitated by using the conventional colorimetric MTT assay. The MTT assay is based on the cleavage of the yellow tetrazolium salt MTT to purple formazan crystal by metabolic active cells. The formazan is then solubilized, and the concentration determined by optical density at 570 nm. The cells plated and incubated with a compound as described above are supplemented with the solution of MTT and incubated for 2-3 hours. The growth medium is removed and dimethyl sulfoxide is added into each well to dissolve the formazan. The absorbance is measured on an ELISA plate reader with a test wavelength of 570 nm and a background subtraction wavelength of 630 nm to obtain sample signal (OD570-OD630). […] The results are reported in terms of IC50 value for a particular compound and a cell line in the standard 3-day proliferation assay using Cell Titer-Glo. […] The results are reported in terms of IC50 value for a particular compound and a cell line in the standard 3-day proliferation assay using MTT assay.

[7] = test system: H929 (multiple myeloma); test: Cell proliferation inhibition, Cell Titer-Glo, H929; format: cell-based; settings: Homo sapiens, NCI-H929; cell proliferation assay, H929 cells
Experimental: as §2, §3

T5 sequence (P06213 1023-1298 limits assumed, species assumed): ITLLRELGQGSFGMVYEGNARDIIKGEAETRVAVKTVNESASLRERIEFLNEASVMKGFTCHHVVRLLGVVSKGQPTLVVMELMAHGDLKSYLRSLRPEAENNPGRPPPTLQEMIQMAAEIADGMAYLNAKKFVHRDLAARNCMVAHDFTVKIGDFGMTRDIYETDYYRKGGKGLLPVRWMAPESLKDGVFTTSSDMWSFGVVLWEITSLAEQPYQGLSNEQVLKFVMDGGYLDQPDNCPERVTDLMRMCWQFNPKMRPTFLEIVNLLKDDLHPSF
T3 sequence (P08069 741-1367 limits assumed): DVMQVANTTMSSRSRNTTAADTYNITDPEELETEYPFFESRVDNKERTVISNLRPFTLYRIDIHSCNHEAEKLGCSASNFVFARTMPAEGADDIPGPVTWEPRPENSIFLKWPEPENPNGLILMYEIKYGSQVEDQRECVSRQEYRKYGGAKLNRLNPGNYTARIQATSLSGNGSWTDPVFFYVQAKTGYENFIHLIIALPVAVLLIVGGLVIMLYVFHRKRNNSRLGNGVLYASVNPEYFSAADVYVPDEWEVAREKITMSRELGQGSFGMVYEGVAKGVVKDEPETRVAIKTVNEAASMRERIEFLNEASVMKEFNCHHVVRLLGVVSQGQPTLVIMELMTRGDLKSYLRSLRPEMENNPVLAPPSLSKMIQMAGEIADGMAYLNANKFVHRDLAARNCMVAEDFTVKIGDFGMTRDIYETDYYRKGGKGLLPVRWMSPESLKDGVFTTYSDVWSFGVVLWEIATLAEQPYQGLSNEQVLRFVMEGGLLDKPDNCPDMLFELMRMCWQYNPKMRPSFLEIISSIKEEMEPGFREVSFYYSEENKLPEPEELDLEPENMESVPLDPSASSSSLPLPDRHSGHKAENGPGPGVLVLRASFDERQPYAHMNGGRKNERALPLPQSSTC
T3 sequence (P08069 31-736 partner limits assumed): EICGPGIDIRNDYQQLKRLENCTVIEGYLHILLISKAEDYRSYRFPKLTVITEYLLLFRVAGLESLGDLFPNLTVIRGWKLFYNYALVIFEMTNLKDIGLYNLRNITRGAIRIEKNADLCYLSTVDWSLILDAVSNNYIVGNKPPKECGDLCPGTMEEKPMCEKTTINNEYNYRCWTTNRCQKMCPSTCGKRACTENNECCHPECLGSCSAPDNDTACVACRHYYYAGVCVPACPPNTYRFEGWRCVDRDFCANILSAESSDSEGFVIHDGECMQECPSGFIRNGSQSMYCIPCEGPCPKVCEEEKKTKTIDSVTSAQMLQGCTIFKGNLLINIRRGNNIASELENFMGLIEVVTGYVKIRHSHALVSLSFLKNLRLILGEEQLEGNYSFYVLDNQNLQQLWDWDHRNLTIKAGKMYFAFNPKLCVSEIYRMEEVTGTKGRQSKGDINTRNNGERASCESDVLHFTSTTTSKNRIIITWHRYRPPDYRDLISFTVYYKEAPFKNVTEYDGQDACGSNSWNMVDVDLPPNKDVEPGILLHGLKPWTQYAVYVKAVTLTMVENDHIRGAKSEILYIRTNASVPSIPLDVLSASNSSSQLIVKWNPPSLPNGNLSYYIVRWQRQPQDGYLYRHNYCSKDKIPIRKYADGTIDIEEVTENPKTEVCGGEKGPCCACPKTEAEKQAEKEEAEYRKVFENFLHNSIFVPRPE
T2 sequence (P08069 999-1274 limits assumed): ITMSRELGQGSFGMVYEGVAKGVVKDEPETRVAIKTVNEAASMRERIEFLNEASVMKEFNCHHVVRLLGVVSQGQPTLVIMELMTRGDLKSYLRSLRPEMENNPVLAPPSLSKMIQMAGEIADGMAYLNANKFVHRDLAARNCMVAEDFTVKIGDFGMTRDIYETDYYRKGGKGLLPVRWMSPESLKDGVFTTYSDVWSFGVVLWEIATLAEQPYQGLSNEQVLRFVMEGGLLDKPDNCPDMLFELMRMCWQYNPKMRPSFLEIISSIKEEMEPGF
T4 sequence (O60674 849-1124 limits assumed, species assumed): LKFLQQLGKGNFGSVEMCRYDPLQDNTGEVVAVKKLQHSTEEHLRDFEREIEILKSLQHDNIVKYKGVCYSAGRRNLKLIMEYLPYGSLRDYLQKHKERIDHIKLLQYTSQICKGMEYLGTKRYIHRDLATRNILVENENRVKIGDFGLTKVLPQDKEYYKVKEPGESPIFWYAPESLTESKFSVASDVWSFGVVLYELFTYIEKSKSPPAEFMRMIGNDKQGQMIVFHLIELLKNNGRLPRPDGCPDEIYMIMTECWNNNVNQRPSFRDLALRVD
T1 sequence (Q9UM73 1116-1392 limits assumed, species assumed): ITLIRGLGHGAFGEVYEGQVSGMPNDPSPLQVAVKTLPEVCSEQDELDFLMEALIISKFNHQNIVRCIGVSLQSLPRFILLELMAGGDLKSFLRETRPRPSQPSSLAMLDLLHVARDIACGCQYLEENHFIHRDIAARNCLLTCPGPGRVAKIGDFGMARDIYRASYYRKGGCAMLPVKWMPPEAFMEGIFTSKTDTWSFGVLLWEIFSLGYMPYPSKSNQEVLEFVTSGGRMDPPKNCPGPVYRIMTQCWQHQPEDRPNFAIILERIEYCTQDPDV

Structure (SMILES) | pIC50 [1] | pIC50 [2] | pIC50 [3] | pIC50 [4] | pIC50 [5] | pIC50 [6] | pIC50 [7]
CN1CCC(N2C(=O)c3cc4nc(-c5c(NC[C@H](O)COc6ccc(F)cc6)cc[nH]c5=O)[nH]c4cc3C2=O)CC1 [compound 22] | 5.30 to 6.30 | 5.30 to 6.30 | < 4.82 | 5.30 to 6.30 | 5.30 to 6.30 |  | 
CN1CCC(N2Cc3cc4nc(-c5c(NC[C@@H](O)COc6cccc(C(F)(F)F)c6Cl)cc[nH]c5=O)[nH]c4cc3C2=O)CC1 [compound 154] | < 4.82 | > 6.30 |  | > 6.30 | > 6.30 | < 4.82 | 4.82 to 5.30
O=C1NC(=O)c2cc3[nH]c(-c4c(NC[C@@H](O)c5cccc(Cl)c5)cc[nH]c4=O)nc3cc21 [compound 11] | 4.82 to 5.30 | < 4.82 | 5.30 to 6.30 | 4.82 to 5.30 | 4.82 to 5.30 |  | 
CN1CCC(N2Cc3cc4nc(-c5c(NC[C@@H](O)COc6cc(C(F)(F)F)ccc6Cl)cc[nH]c5=O)[nH]c4cc3C2=O)CC1 [compound 151] | 4.82 to 5.30 | > 6.30 |  | > 6.30 | > 6.30 | < 4.82 | 4.82 to 5.30
CN1CCN(CCCN2C(=O)c3cc4nc(-c5c(NC[C@@H](O)c6cccc(Cl)c6)cc[nH]c5=O)[nH]c4cc3C2=O)CC1 [compound 19] | 5.30 to 6.30 | > 6.30 | < 4.82 | 5.30 to 6.30 | 5.30 to 6.30 |  | 
CN1CCC(N2C(=O)c3cc4nc(-c5c(NC[C@@H](O)COc6ccc(F)cc6)cc[nH]c5=O)[nH]c4cc3C2=O)CC1 [compound 21] | 5.30 to 6.30 | 5.30 to 6.30 | 4.82 to 5.30 | 5.30 to 6.30 | 5.30 to 6.30 |  | 
Cc1cc(OCC(O)CNc2cc[nH]c(=O)c2-c2nc3cc4c(cc3[nH]2)C(=O)N(C2CCN(C)CC2)C4=O)ccc1Cl (stereo not shown) [compound 10] | < 4.82 | 4.82 to 5.30 | < 4.82 | 4.82 to 5.30 | 5.30 to 6.30 |  | 
CN1CCC(N2Cc3cc4nc(-c5c(NC[C@@H](O)COc6cc(F)ccc6Cl)cc[nH]c5=O)[nH]c4cc3C2=O)CC1 [compound 150] | 5.30 to 6.30 | > 6.30 |  | > 6.30 | > 6.30 | < 4.82 | 4.82 to 5.30
CN1CCC(N2Cc3cc4nc(-c5c(NC[C@@H](O)COc6cc(F)cc(F)c6Cl)cc[nH]c5=O)[nH]c4cc3C2=O)CC1 [compound 152] | 5.30 to 6.30 | > 6.30 |  | > 6.30 | > 6.30 | < 4.82 | 4.82 to 5.30
CN1CCN(CCN2C(=O)c3cc4nc(-c5c(NC[C@@H](O)c6cccc(Cl)c6)cc[nH]c5=O)[nH]c4cc3C2=O)CC1 [compound 20] | 5.30 to 6.30 | 5.30 to 6.30 | < 4.82 | 5.30 to 6.30 | 5.30 to 6.30 |  | 
O=C1c2cc3nc(-c4c(NC[C@@H](O)c5cccc(Cl)c5)cc[nH]c4=O)[nH]c3cc2C(=O)N1CCCN1CCOCC1 [compound 12] | < 4.82 | < 4.82 | 5.30 to 6.30 | < 4.82 | < 4.82 |  | 
CN1CCC(N2Cc3cc4nc(-c5c(NC[C@@H](O)COc6cc7c(cc6Cl)OCO7)cc[nH]c5=O)[nH]c4cc3C2=O)CC1 [compound 157] | 5.30 to 6.30 | > 6.30 |  | > 6.30 | > 6.30 | < 4.82 | < 4.82
CN1CCC(N2C(=O)c3cc4nc(-c5c(NCC(O)COc6ccc(C(C)(C)C)cc6)cc[nH]c5=O)[nH]c4cc3C2=O)CC1 (stereo not shown) [compound 14] | < 4.82 | 5.30 to 6.30 | 5.30 to 6.30 | 5.30 to 6.30 | 5.30 to 6.30 |  | 
Cc1ccc(Cl)c(OC[C@H](O)CNc2cc[nH]c(=O)c2-c2nc3cc4c(cc3[nH]2)C(=O)N(C2CCN(C)CC2)C4)c1F [compound 158] | 4.82 to 5.30 | > 6.30 |  | > 6.30 | > 6.30 | < 4.82 | 4.82 to 5.30
CN1CCCC1CCN1C(=O)c2cc3nc(-c4c(NC[C@@H](O)c5cccc(Cl)c5)cc[nH]c4=O)[nH]c3cc2C1=O (stereo partly shown) [compound 18] | 5.30 to 6.30 | > 6.30 | < 4.82 | 5.30 to 6.30 | 5.30 to 6.30 |  | 
O=C1c2cc3nc(-c4c(NC[C@@H](O)c5cccc(Cl)c5)cc[nH]c4=O)[nH]c3cc2C(=O)N1CC1CCN(CCO)CC1 [compound 13] | 5.30 to 6.30 | > 6.30 | 5.30 to 6.30 | 5.30 to 6.30 | > 6.30 |  | 
CN1CCC(N2C(=O)c3cc4nc(-c5c(NCC(O)COc6ccccc6)cc[nH]c5=O)[nH]c4cc3C2=O)CC1 (stereo not shown) [compound 23] | 4.82 to 5.30 | 5.30 to 6.30 | 4.82 to 5.30 | 5.30 to 6.30 | 5.30 to 6.30 |  | 
